Data taken from patent US20090239748A1, “Fungicidal Mixtures Based on 2,5-Disubstituted N-Biphenylpyrazolcarboxamides” (BASF Aktiengesellschaft, priority 2005, published 2009).

What was measured:
[1] = tested on: Puccinia recondita; test: Protective activity against Puccinia recondita on wheat (brown rust of wheat); format: in vivo
Method: (§1) The active compounds, separately or jointly, were prepared as a stock solution comprising 25 mg of active compound which was made up to 10 ml using a mixture of acetone and/or dimethyl sulfoxide and the emulsifier Uniperol® EL (wetting agent having an emulsifying and dispersing action based on ethoxylated alkylphenols) in a ratio by volume of solvent/emulsifier of 99:1. The mixture was then made up to 100 ml with water. This stock solution was diluted with the solvent/emulsifier/water mixture described to give the concentration of active compound stated below.
(§2) Alternatively, the active compounds epoxiconazole and pyraclostrobin were used as a commercial formulation and diluted with water to the stated active compound concentrations.
(§3) The visually determined percentages of infected leaf areas were converted into efficacies in % of the untreated control.
(§4) The efficacy (E) is calculated as follows using Abbot's formula: […]
α corresponds to the fungicidal infection of the treated plants in % and β corresponds to the fungicidal infection of the untreated (control) plants in %
An efficacy of 0 means that the infection level of the treated plants corresponds to that of the untreated control plants; an efficacy of 100 means that the treated plants were not infected.
(§5) The expected efficacies of active compound mixtures were determined using Colby's formula [R. S. Colby, “Calculating synergistic and antagonistic responses of herbicide combinations”, Weeds 15, 20-22 (1967)] and compared with the observed efficacies.
(§6) E=x+y−x·y/100 • E expected efficacy, expressed in % of the untreated control, when using the mixture of the active compounds A and B at the concentrations a and b; • x efficacy, expressed in % of the untreated control, when using the active compound A at the concentration a; • y efficacy, expressed in % of the untreated control, when using the active compound B at the concentration b.
Leaves of potted wheat seedlings of the cultivar “Kanzler” were sprayed to runoff point with an aqueous suspension having the active compound concentration stated below. The next day, the treated plants were inoculated with a spore suspension of brown rust of wheat (Puccinia recondita). The plants were then placed in a chamber with high atmospheric humidity (90 to 95%) at 20 to 22° C. for 24 hours. During this time, the spores germinated and the germ tubes penetrated into the leaf tissue. The next day, the test plants were returned to the greenhouse and cultivated at temperatures between 20 and 22° C. and at 65 to 70% relative atmospheric humidity for a further 7 days. The extent of the rust fungus development on the leaves was then determined visually.

[2] = tested on: Botrytis cinerea; test: Activity against gray mold on bell pepper leaves caused by Botrytis cinerea, 1 day protective application; format: in vivo; details: sprayed 1 day before inoculation, read after 5 days
Method: as §1, §3, §4
(§7) The expected efficacies of active compound mixtures were determined using Colby's formula [R. S. Colby, “Calculating synergistic and antagonistic responses of herbicide combinations”, Weeds 15, 20-22 (1967)] and compared with the observed efficacies. […]
Bell pepper seedlings of the cultivar “Neusiedler Ideal Elite” were, after 2-3 leaves were well developed, sprayed to runoff point with an aqueous suspension having the active compound concentration stated below. […] After 5 days, the extent of the fungal infection on the leaves could be determined visually in %.

[3] = tested on: Phakopsora pachyrhizi; test: Curative activity against soybean rust caused by Phakopsora pachyrhizi; format: in vivo; details: 0.25 mg/l, curative (sprayed 2 days after inoculation), 14 days
Method: as §1, §2, §3, §4, §7
Leaves of potted soybean seedlings of the cultivar “Oxford” were inoculated with a spore suspension of soybean rust (Phakopsora pachyrhizi). […] The extent of the rust fungus development on the leaves was then determined.

[4] = tested on: Septoria tritici; test: Activity against the Septoria leaf spot pathogen Septoria tritici in the microtiter test; format: cell-based; details: microtiter plate, 405 nm, day 7
Method: as §5, §6
For this test, the active compounds were formulated separately as a stock solution having a concentration of 10 000 ppm in dimethyl sulfoxide.
The stock solution was mixed according to the ratio, pipetted into a microtiter plate (MTP) and diluted with an aqueous malt-based fungus nutrient medium to the stated active compound concentration. An aqueous spore suspension of Septoria tritici was then added. […] Using an absorbtion photometer, the MTPs were measured at 405 nm on day 7 after the inoculation.
The measured parameters were compared to the growth of the active compound-free control variant (100%) and the fungus- and active compound-free blank value to determine the relative growth in % of the pathogens in the individual active compounds.

[5] = tested on: Pyrenophora [syn. Drechslera] teres; test: Activity against net blotch of barley caused by Pyrenophora teres, 1 day protective application; format: in vivo; details: 0.25 mg/l, read after 6 days
Method: as §1, with “below. […]” for “below.”
as §3, §4, §7
Leaves of potted barley seedlings were sprayed to runoff point with an aqueous suspension having the active compound concentration stated below. […] After 6 days, the extent of the development of the disease was determined visually in % infection of the entire leaf area.

Fc1ccc([C@]2(Cn3cncn3)O[C@H]2c2ccccc2Cl)cc1 (racemic) [epoxiconazole, (2RS,3SR)-1-[3-(2-chlorophenyl)-2,3-epoxy-2-(4-fluorophenyl)propyl]-1H-1,2,4-triazole, reference compound]
Observed effect (% infection) ([1]; 0.25 mg/l): 5%

CC1CCN(c2c(-c3c(F)cc(F)cc3F)c(Cl)nc3ncnn23)CC1 [5-chloro-7-(4-methylpiperidin-1-yl)-6-(2,4,6-trifluorophenyl)-[1,2,4]triazolo[1,5-a]-pyrimidine, reference compound]
Observed effect (% infection) ([2]; 4 mg/l): 40%

Cn1cc(C(=O)Nc2ccccc2-c2cc(F)ccc2F)c(C(F)(F)F)n1 [No. I.1, N-(ortho-(2,5-difluorophenyl)phenyl)-1-methyl-3-trifluoromethylpyrazole-4-carboxamide]
Observed effect (% infection) ([1]; 1 mg/l): 5% | Observed effect (% infection) [3]: 29% | Observed effect (% infection) ([2]; 1 mg/l): 0% | Observed effect (% infection) ([4]; 1 mg/l): 0%

Cn1cc(C(=O)Nc2ccccc2-c2cc(F)ccc2F)c(C(F)F)n1 [No. I.2, N-(2′,5′-difluorobiphenyl-2-yl)-1-methyl-3-difluoromethyl-1H-pyrazole-4-carboxamide]
Observed effect (% infection) ([1]; 1 mg/l): 52% | Observed effect (% infection) [5]: 0% | melting point: 139 to 141 °C

Cn1cc(C(=O)Nc2ccccc2-c2cc(Cl)ccc2Cl)c(C(F)F)n1 [No. I.4, N-(2′,5′-dichlorobiphenyl-2-yl)-1-methyl-3-difluoromethyl-1H-pyrazole-4-carboxamide]
melting point: 130 to 132 °C

Cn1cc(C(=O)Nc2ccccc2-c2cc(Cl)ccc2Cl)c(C(F)(F)F)n1 [No. I.5, N-(2′,5′-dichlorobiphenyl-2-yl)-1-methyl-3-trifluoromethyl-1H-pyrazole-4-carboxamide]
melting point: 131 to 135 °C

COc1ccc(C(=CC(=O)N2CCOCC2)c2ccc(Cl)cc2)cc1OC [dimethomorph, 3-(4-chlorophenyl)-3-(3,4-dimethoxyphenyl)-1-morpholin-4-yl-propenone, reference compound]
Observed effect (% infection) ([4]; 4 mg/l): 20%

COc1cc(C)c(C(=O)c2c(OC)ccc(Br)c2C)c(OC)c1OC [metrafenone, 3′-bromo-2,3,4,6′-tetramethoxy-2′,6-dimethylbenzophenone, reference compound]
Observed effect (% infection) ([1]; 4 mg/l): 0%

COC(=O)N(OC)c1ccccc1COc1ccn(-c2ccc(Cl)cc2)n1 [pyraclostrobin, methyl N-{2-[1-(4-chlorophenyl)-1H-pyrazol-3-yloxymethyl]phenyl}(N-methoxy)carbamate, reference compound]
Observed effect (% infection) [3]: 29% | Observed effect (% infection) [5]: 33%
